In patent US5262417A, “Antibacterial quinolone compounds” (The Upjohn Company, priority 1991, dated 1993):
Converted amounts (≈) assume the structure as drawn. Where two headings read alike, the source gives them in different places.

How the values were obtained:
Test in all cases: Minimum inhibitory concentration (MIC) by agar dilution
Assay type in all cases: cell-based
Enterobacter cloacae = system: Enterobacter cloacae
Protocol: (§1) Briefly, MIC values are determined in unsupplemented Mueller Hinton Agar (MHA). The compounds tested are diluted serially into molten MHA at 47° C. The agar is poured into petri dishes and allowed to harden. The various bacteria used for testing are grown overnight on MHA at 35° C. and transferred to Trypticase soy broth (TSB) until a turbidity of 0.5 McFarland standard is obtained. The bacteria are diluted one to 20 in TSB and inoculated on the plates (1 μl using a Steers replicator).
as §1, with “Compounds of this invention can also be tested for in vitro antimicrobial activity using standard testing procedures such as the determination of minimum inhibitory concentration (MIC) by agar dilution as described in "Methods for Dilution Antimicrobial Susceptibility Tests for Bacteria That Grow Aerobically" (MFT) published Jan. […] Briefly,” for “Briefly,”, “(1μl” for “(1 μl”

[1] = system: Acinetobacter calcoaceticus; settings: Acinetobacter calcoaceticus
Protocol: as §1, with “The antibacterial activity of the compounds of Formula IC was determined by using standard testing procedures such as the determination of minimum inhibitory concentration (MIC) by agar dilution as described in "Methods for Dilution Antimicrobial Susceptibility Tests for Bacteria That Grow Aerobically" (MFT) published January 1983 by the National Committee for Clinical Laboratory Standards, 771 East Lancaster Avenue, Villanova, Pa. 19084, USA. Briefly,” for “Briefly,”
(§2) Compounds of this invention can also be tested for in vitro antimicrobial activity using standard testing procedures such as the determination of minimum inhibitory concentration (MIC) by agar dilution as described in "Methods for Dilution Antimicrobial Susceptibility Tests for Bacteria That Grow Aerobically" (MFT) published Jan. 1983 by the National Committee for Clinical Laboratory Standards, 771 East Lancaster Avenue, Villanova, Penna. 19084, USA. Briefly, MIC values are determined in unsupplemented Mueller Hinton Agar (MHA). The compounds tested are diluted serially into molten MHA at 47° C. The agar is poured into petri dishes and allowed to harden. The various bacteria used for testing are grown overnight on MHA at 35° C. and transferred to Trypticase soy broth (TSB) until a turbidity of 0.5 McFarland standard is obtained. The bacteria are diluted one to 20 in TSB and inoculated on the plates (1μl using a Steers replicator). […] The MIC test results of selected of Formula B compounds of this invention are found in Tables B2-B9.

Escherichia coli = settings: Escherichia coli
Protocol: (§3) The antibacterial activity of the compounds of Formula IC was determined by using standard testing procedures such as the determination of minimum inhibitory concentration (MIC) by agar dilution as described in "Methods for Dilution Antimicrobial Susceptibility Tests for Bacteria That Grow Aerobically" (MFT) published January 1983 by the National Committee for Clinical Laboratory Standards, 771 East Lancaster Avenue, Villanova, Pa. 19084, USA. Briefly, MIC values are determined in unsupplemented Mueller Hinton Agar (MHA). The compounds tested are diluted serially into molten MHA at 47° C. The agar is poured into petri dishes and allowed to harden. The various bacteria used for testing are grown overnight on MHA at 35° C. and transferred to Trypticase soy broth (TSB) until a turbidity of 0.5 McFarland standard is obtained. The bacteria are diluted one to 20 in TSB and inoculated on the plates (1 μl using a Steers replicator).
as §2

Klebsiella pneumoniae = system: Klebsiella pneumoniae
Protocol: as §3, §2

[2] = system: Staphylococcus epidermidis; settings: 20 h
Protocol: as §3, §2

Citerobacter freundii = system: Citerobacter freundii
Protocol: as §3, §2

Serratia marcescens = settings: 20 h, read-out: MINIMUM INHIBITORY CONCENTRATION
Protocol: as §3, §2

Proteus penneri = settings: Proteus penneri
Protocol: as §3, §2

Pseudomonas aeruginosa = settings: Pseudomonas aeruginosa
Protocol: as §3, §2

Streptococcus faecalis = settings: Enterococcus faecalis
Protocol: as §3, §2

Streptococcus pyogenes = settings: Streptococcus pyogenes
Protocol: as §3, §2

Streptococcus pneumoniae = settings: Streptococcus pneumoniae
Protocol: as §3, §2

Staphylococcus aureus = settings: Staphylococcus aureus
Protocol: as §3, §2

[3] = 20 h, read-out: MINIMUM INHIBITORY CONCENTRATION
[4] = 20 h, read-out: MINIMUM INHIBITORY CONCENTRATION, Cult No. 12170, MHA
[5] = 20 h, read-out: MINIMUM INHIBITORY CONCENTRATION, Cult No. 6674, MHA
[6] = 20 h, read-out: MINIMUM INHIBITORY CONCENTRATION, Cult No. 9451, MHA
[7] = 20 h, read-out: MINIMUM INHIBITORY CONCENTRATION, Cult No. 9855, MHA
[8] = 20 h, read-out: MINIMUM INHIBITORY CONCENTRATION, Cult No. 9952, MHA
[9] = read-out: MINIMUM INHIBITORY CONCENTRATION
[10] = 20 h, read-out: MINIMUM INHIBITORY CONCENTRATION, Cult No. 9679, MHA
[11] = 20 h, read-out: MINIMUM INHIBITORY CONCENTRATION, Cult No. 6676, MHA
[12] = 20 h, read-out: MINIMUM INHIBITORY CONCENTRATION, Cult No. 9191, MHA
[13] = 20 h, read-out: MINIMUM INHIBITORY CONCENTRATION, Cult No. 12120, MHA
[14] = 20 h, read-out: MINIMUM INHIBITORY CONCENTRATION, Cult No. 152, MHA
[15] = 20 h, read-out: MINIMUM INHIBITORY CONCENTRATION, Cult No. 41, MHA
[16] = 20 h, read-out: MINIMUM INHIBITORY CONCENTRATION, Cult No. 6685, MHA
[17] = 20 h, read-out: MINIMUM INHIBITORY CONCENTRATION, Cult No. 9213, MHA
[18] = 20 h, read-out: MINIMUM INHIBITORY CONCENTRATION, Cult No. 9218, MHA
[19] = 20 h, read-out: MINIMUM INHIBITORY CONCENTRATION, Cult No. 9271, MHA

SMILES | MIC (Serratia marcescens) | MIC (Enterobacter cloacae; [3]) | MIC [1, 4] | MIC (Escherichia coli; [5]) | MIC (Escherichia coli; [6]) | MIC (Escherichia coli; [7]) | MIC (Escherichia coli; [8]) | MIC (Klebsiella pneumoniae; [3]) | MIC [2, 9] | MIC (Citerobacter freundii; [3]) | MIC (Proteus penneri; [10]) | MIC (Pseudomonas aeruginosa; [11]) | MIC (Pseudomonas aeruginosa; [12]) | MIC (Pseudomonas aeruginosa; [13]) | MIC (Streptococcus faecalis; [3]) | MIC (Streptococcus pyogenes; [14]) | MIC (Streptococcus pneumoniae; [15]) | MIC (Staphylococcus aureus; [16]) | MIC (Staphylococcus aureus; [17]) | MIC (Staphylococcus aureus; [18]) | also measured
C#CCn1cc(C(=O)O)c(=O)c2cc(F)c(N3CCNCC3)c(F)c21.CS(=O)(=O)O [C, (+,-)-6,8-difluoro-1,4-dihydro-4-oxo-7-(1-piperazinyl)-1-(2-propynyl)-3-quinolinecarboxylic acid methanesulfonate] | 0.25 µg/mL | – | – | – | – | – | – | – | – | – | – | – | – | – | – | – | – | – | – | – | MIC (Enterobacter cloacae; UC9382, 20 h, read-out: Minimum Inhibitory Concentration): 1 µg/mL; MIC ([1]; UC12170, 20 h, read-out: Minimum Inhibitory Concentration, A. calcoaceticus UC 12170, Table CI): 8 µg/mL; MIC (Escherichia coli; UC6674, 20 h, read-out: Minimum Inhibitory Concentration, E. coli UC 6674, Table CI): 1 µg/mL; MIC (Escherichia coli; UC9451, 20 h, read-out: Minimum Inhibitory Concentration, E. coli UC 9451, Table CI): 2 µg/mL; MIC (Escherichia coli; UC9855, 20 h, read-out: Minimum Inhibitory Concentration, E. coli UC 9855, Table CI): 2 µg/mL; MIC (Escherichia coli; UC9952, 20 h, read-out: Minimum Inhibitory Concentration, E. coli UC 9952, Table CI): 1 µg/mL; MIC (Klebsiella pneumoniae; UC12081, 20 h, read-out: Minimum Inhibitory Concentration): 2 µg/mL; MIC ([2]; read-out: Minimum Inhibitory Concentration): 16 µg/mL; MIC (Citerobacter freundii; Citrobacter freundii, UC3507, 20 h, read-out: Minimum Inhibitory Concentration): 1 µg/mL; MIC (Proteus penneri; UC9679, 20 h, read-out: Minimum Inhibitory Concentration, P. penneri UC 9679, Table CI): 1 µg/mL; MIC (Pseudomonas aeruginosa; UC6676, 20 h, read-out: Minimum Inhibitory Concentration, Ps. aeruginosa UC 6676, Table CI): 16 µg/mL; MIC (Pseudomonas aeruginosa; UC9191, 20 h, read-out: Minimum Inhibitory Concentration, Ps. aeruginosa UC 9191, Table CI): 8 µg/mL; MIC (Pseudomonas aeruginosa; UC12120, 20 h, read-out: Minimum Inhibitory Concentration, Ps. aeruginosa UC 12120, Table CI): 8 µg/mL; MIC (Streptococcus faecalis; UC9217, 20 h, read-out: Minimum Inhibitory Concentration): > 64 µg/mL; MIC (Streptococcus pyogenes; UC152, 20 h, read-out: Minimum Inhibitory Concentration, S. pyogenes UC 152, Table CI): 32 µg/mL; MIC (Streptococcus pneumoniae; UC41, 20 h, read-out: Minimum Inhibitory Concentration, S. pneumoniae UC 41, Table CI): > 64 µg/mL; MIC (Staphylococcus aureus; UC6685, 20 h, read-out: Minimum Inhibitory Concentration, S. aureus UC 6685, Table CI): 32 µg/mL; MIC (Staphylococcus aureus; UC9213, 20 h, read-out: Minimum Inhibitory Concentration, S. aureus UC 9213, Table CI): 32 µg/mL; MIC (Staphylococcus aureus; UC9218, 20 h, read-out: Minimum Inhibitory Concentration, S. aureus UC 9218, Table CI): 32 µg/mL; MIC (Staphylococcus aureus; UC9271, 20 h, read-out: Minimum Inhibitory Concentration, S. aureus UC 9271, Table CI): 32 µg/mL
NC1CCN(c2c(F)cc3c(=O)c(C(=O)O)cn(C45CC(C4)C5)c3c2F)C1 (racemic) [No. 84, 7-(3-amino-1-pyrrolidinyl)-1-(bicyclo[1.1.1]pent-1-yl)-1,4-dihydro-6,8-difluoro-4-oxo-3-quinolinecarboxylic acid] | 0.125 µg/mL (≈ 0.333 µM) | 0.06 µg/mL (≈ 0.16 µM) | 0.125 µg/mL (≈ 0.333 µM) | 0.03 µg/mL (≈ 0.0799 µM) | 0.06 µg/mL (≈ 0.16 µM) | 0.06 µg/mL (≈ 0.16 µM) | 0.03 µg/mL (≈ 0.0799 µM) | 0.06 µg/mL (≈ 0.16 µM) | 0.125 µg/mL (≈ 0.333 µM) | 0.36 µg/mL (≈ 0.959 µM) | 0.25 µg/mL (≈ 0.666 µM) | 1 µg/mL (≈ 2.66 µM) | 0.5 µg/mL (≈ 1.33 µM) | 0.5 µg/mL (≈ 1.33 µM) | 0.5 µg/mL (≈ 1.33 µM) | 0.25 µg/mL (≈ 0.666 µM) | 0.5 µg/mL (≈ 1.33 µM) | 0.06 µg/mL (≈ 0.16 µM) | 0.125 µg/mL (≈ 0.333 µM) | 0.125 µg/mL (≈ 0.333 µM) | MIC (Staphylococcus aureus; [19]): 0.125 µg/mL (≈ 0.333 µM)
O=C(O)c1cn(C23CC(C2)C3)c2nc(N3CCC(O)C3)c(F)cc2c1=O (racemic) [No. 91, 7-(3-hydroxy-1-pyrrolidinyl)-1-(bicyclo[1.1.1]pent-1-yl)-1,4-dihydro-6-fluoro-4-oxo-1,8-naphthyridine-3-carboxylic acid] | 1 µg/mL (≈ 2.78 µM) | 0.25 µg/mL (≈ 0.696 µM) | 0.5 µg/mL (≈ 1.39 µM) | 0.125 µg/mL (≈ 0.348 µM) | 0.25 µg/mL (≈ 0.696 µM) | 0.25 µg/mL (≈ 0.696 µM) | 0.125 µg/mL (≈ 0.348 µM) | 0.5 µg/mL (≈ 1.39 µM) | 0.125 µg/mL (≈ 0.348 µM) | 0.25 µg/mL (≈ 0.696 µM) | 1 µg/mL (≈ 2.78 µM) | 4 µg/mL (≈ 11.1 µM) | 2 µg/mL (≈ 5.57 µM) | 2 µg/mL (≈ 5.57 µM) | 1 µg/mL (≈ 2.78 µM) | 2 µg/mL (≈ 5.57 µM) | 1 µg/mL (≈ 2.78 µM) | 0.06 µg/mL (≈ 0.167 µM) | 0.125 µg/mL (≈ 0.348 µM) | 0.125 µg/mL (≈ 0.348 µM) | MIC (Staphylococcus aureus; [19]): 0.125 µg/mL (≈ 0.348 µM)
CN1CCN(c2c(F)cc3c(=O)c(C(=O)O)cn(C45CC(C4)C5)c3c2F)CC1 [No. 99, 7-(4-methyl-1-piperazinyl)-1-(bicyclo[1.1.1]pent-1-yl)-1,4-dihydro-6,8-difluoro-4-oxo-3-quinolinecarboxylic acid] | 1 µg/mL (≈ 2.57 µM) | 0.25 µg/mL (≈ 0.642 µM) | 0.125 µg/mL (≈ 0.321 µM) | 0.25 µg/mL (≈ 0.642 µM) | 0.255 µg/mL (≈ 0.655 µM) | 0.25 µg/mL (≈ 0.642 µM) | 0.125 µg/mL (≈ 0.321 µM) | 0.5 µg/mL (≈ 1.28 µM) | 0.5 µg/mL (≈ 1.28 µM) | 0.25 µg/mL (≈ 0.642 µM) | 2 µg/mL (≈ 5.14 µM) | 4 µg/mL (≈ 10.3 µM) | 4 µg/mL (≈ 10.3 µM) | 2 µg/mL (≈ 5.14 µM) | 4 µg/mL (≈ 10.3 µM) | 2 µg/mL (≈ 5.14 µM) | 2 µg/mL (≈ 5.14 µM) | 0.5 µg/mL (≈ 1.28 µM) | 0.5 µg/mL (≈ 1.28 µM) | 0.5 µg/mL (≈ 1.28 µM) | MIC (Staphylococcus aureus; [19]): 0.5 µg/mL (≈ 1.28 µM)
